Test [1] deals with NCI-H1703. Description: Induction of cell cycle arrest in human NCI-H1703 cells assessed as accumulation of cells at G2/M phase at 10 uM incubated for 24 hrs by flow cytometric analysis (reference value: 29.88 %). The test is classed as functional. (In flow cytometry, cells or beads pass a laser one at a time.)
Test [2] has as its system A549. Description: Induction of cell cycle arrest in human A549 cells assessed as accumulation of cells at G2/M phase at 10 uM incubated for 24 hrs by flow cytometric analysis (reference value: 17.2 %). The test is classed as functional.
The next test concerns Hepa 1-6. Description: Cytotoxicity against mouse Hepa1-6 cells assessed as reduction in cell viability incubated for 48 hrs by MTT assay. The test is classed as functional, cell-based. To be noted: Hepa1-6, 48 h.
Test [3] deals with NCI-H1703. Description: Induction of cell cycle arrest in human NCI-H1703 cells assessed as accumulation of cells at G1/G0 phase at 10 uM incubated for 24 hrs by flow cytometric analysis (reference value: 42.06 %). The format is functional.
The test system of test [4] is A549. Description: Cytotoxicity against human A549 cells assessed as reduction in cell viability incubated for 48 hrs by MTT assay. To be noted: A549, 48 h. The format is functional, cell-based. Background: Formazan colour is commonly taken as a measure of viable cells.
Test [5] deals with A549. Description: Induction of cell cycle arrest in human A549 cells assessed as downregulation of total Rb protein level at 10 uM incubated for 24 hrs by Western blotting analysis. The format is functional, cell-based.
The test system of test [6] is NCI-H1703. Description: Induction of cell cycle arrest in human NCI-H1703 cells assessed as downregulation of Rb phosphorylation at Ser807/811 residue at 5 uM incubated for 24 hrs by Western blotting analysis. The format is functional, cell-based. A general note: Immunoblotting shows a protein as a band on a membrane.
Test [7] deals with A549. Description: Induction of cell cycle arrest in human A549 cells assessed as downregulation of CDK6 protein expression incubated for 24 hrs by Western blotting analysis. The format is functional, cell-based.
Test [8] relates to NCI-H1703. Description: Induction of cell cycle arrest in human NCI-H1703 cells assessed as downregulation of CDK6 protein expression incubated for 24 hrs by Western blotting analysis. The test is classed as functional, cell-based.
A further test deals with MDA-MB-231. Description: Cytotoxicity against human MDA-MB-231 cells assessed as reduction in cell viability incubated for 48 hrs by MTT assay. The format is functional, cell-based. To be noted: MDA-MB-231, 48 h.
Test [9] deals with A549. Description: Antiproliferative activity against human A549 cells assessed as inhibition of cell growth incubated for 18 hrs by Edu incorporation based fluorescence microscopic analysis. The test is classed as functional.
In test [10] the test system is NCI-H1703. Description: Induction of cell cycle arrest in human NCI-H1703 cells assessed as accumulation of cells at S phase at 10 uM incubated for 24 hrs by flow cytometric analysis (reference value: 28.06 %). The format is functional.
In test [11] the test system is A549. Description: Induction of cell cycle arrest in human A549 cells assessed as accumulation of cells at G1/G0 phase at 20 uM incubated for 24 hrs by flow cytometric analysis (reference value: 51.49 %). The test is classed as functional.

Activity calls are given as the source filed them. No cut-off for these calls is given here.

Usually IC50 stands for the point on the concentration scale where inhibition reaches its midpoint. For the compound `C/C=C/[C@@H]1[C@H]2C[C@@H](C)CC[C@@H]2C(C)=C[C@H]1C(=O)c1c(O)c(-c2ccc(O)cc2)c[nH]c1=O` [ILICICOLIN H], the Activity in the test on NCI-H1703 [1] is 19.48%; with A549 [2] it was 24%; in the test with NCI-H1703 [3], 56.04%; with A549 [7], “Dose-Dependent Effect”; in the test on NCI-H1703 [8], “Dose-Dependent Effect”; in the test on A549 [9], “Dose-Dependent Effect”. For the same compound, the Activity turned out to be 24.49% in the test with NCI-H1703 [10] and 72.12% with A549 [11]. The half-maximal inhibitory concentration (IC50) in the test with Hepa 1-6 was 19.6 µM; in the test on A549 [4] it was 7.01 µM; with MDA-MB-231, 9.98 µM. Moreover, the outcome in the test with A549 [5] was inactive. In addition, in the test on NCI-H1703 [6], the result was Active.

Values taken from ChEMBL document CHEMBL5500339, “4-Hydroxy-2-pyridone derivatives with antitumor activity produced by mangrove endophytic fungus Talaromyces sp. CY-3” (Eur J Med Chem, 2024).
